# Measurements reported in ChEMBL document CHEMBL3124888, “Inhibiting the HIV integration process: past, present, and the future” (J Med Chem, 2014).
# Tests used:
# [1] = tested on: Human immunodeficiency virus 1; assay: Antiviral activity against HIV-1 harboring integrase G140S mutant relative to wild type HIV1; type: functional
# [2] = tested on: Human immunodeficiency virus 1; assay: Antiviral activity against HIV-1 harboring integrase T66I/R263K double mutant relative to wild type HIV1; type: functional
# [3] = tested on: Human immunodeficiency virus 1; assay: Antiviral activity against HIV-1 harboring integrase E138K/Q148K double mutant relative to wild type HIV1; type: functional
# [4] = tested on: Human immunodeficiency virus 1; assay: Antiviral activity against HIV-1 harboring integrase E92Q mutant relative to wild type HIV1; type: functional
# [5] = tested on: Human immunodeficiency virus 1; assay: Antiviral activity against HIV-1 harboring integrase T66I mutant relative to wild type HIV1; type: functional
# [6] = tested on: Human immunodeficiency virus 1; assay: Antiviral activity against HIV-1 harboring integrase T66R mutant relative to wild type HIV1; type: functional
# [7] = tested on: Human immunodeficiency virus 1; assay: Antiviral activity against HIV-1 harboring integrase Q148R mutant relative to wild type HIV1; type: functional
# [8] = tested on: Human immunodeficiency virus 1; assay: Antiviral activity against HIV-1 harboring integrase T97A/Y143R double mutant relative to wild type HIV1; type: functional
# [9] = tested on: Human immunodeficiency virus 1; assay: Antiviral activity against HIV1 3B infected in human MT4 cells assessed as inhibition of viral infection after 5 days by MTT assay in presence of human serum; type: functional; details: Human immunodeficiency virus 1, 3B, MT4, 120 h
# [10] = tested on: Human immunodeficiency virus 1; assay: Antiviral activity against HIV-1 harboring integrase R263K mutant relative to wild type HIV1; type: functional
# [11] = tested on: Human immunodeficiency virus 1; assay: Antiviral activity against HIV-1 harboring integrase T97A mutant relative to wild type HIV1; type: functional
# [12] = tested on: Human immunodeficiency virus 1; assay: Antiviral activity against HIV-1 harboring integrase Y143R mutant relative to wild type HIV1; type: functional
# [13] = tested on: Human immunodeficiency virus 1; assay: Antiviral activity against HIV-1 harboring integrase G140S/Q148K double mutant relative to wild type HIV1; type: functional
# [14] = tested on: Human immunodeficiency virus 1; assay: Antiviral activity against HIV-1 harboring integrase G118R mutant relative to wild type HIV1; type: functional
# [15] = tested on: Human immunodeficiency virus 1; assay: Antiviral activity against HIV-1 harboring integrase Q148H mutant relative to wild type HIV1; type: functional
# [16] = tested on: Human immunodeficiency virus 1; assay: Antiviral activity against HIV-1 harboring integrase E138K/Q148H double mutant relative to wild type HIV1; type: functional
# [17] = tested on: Human immunodeficiency virus 1; assay: Antiviral activity against HIV-1 harboring integrase T97A/Y143C double mutant relative to wild type HIV1; type: functional
# [18] = tested on: Human immunodeficiency virus 1; assay: Antiviral activity against HIV-1 harboring integrase E92Q/N155H double mutant relative to wild type HIV1; type: functional
# [19] = tested on: Human immunodeficiency virus 1; assay: Antiviral activity against HIV-1 harboring integrase N155H mutant relative to wild type HIV1; type: functional
# [20] = tested on: Human immunodeficiency virus 1; assay: Antiviral activity against HIV-1 harboring integrase G140S/Q148H double mutant relative to wild type HIV1; type: functional
# [21] = tested on: Human immunodeficiency virus 1; assay: Antiviral activity against HIV-1 harboring integrase Q148K mutant relative to wild type HIV1; type: functional
# [22] = Tmax in rat; type: ADME, organism-based; details: in vivo
# [23] = Tmax in dog; type: ADME, organism-based, Canis lupus familiaris; details: in vivo
# [24] = tested on: Human immunodeficiency virus 1; assay: Antiviral activity against HIV-1 harboring integrase Y143C mutant relative to wild type HIV1; type: functional
# [25] = tested on: Human immunodeficiency virus 1; assay: Antiviral activity against HIV-1 harboring integrase E138K mutant relative to wild type HIV1; type: functional
# [26] = Oral bioavailability in rat; type: ADME, organism-based; details: in vivo
# [27] = tested on: Human immunodeficiency virus 1; assay: Antiviral activity against HIV-1 by cell-based assay; type: functional, organism-based
# [28] = Inhibition of HIV1 integrase/LEDGF-75 (unknown origin) interaction
# [29] = biological target: T1, Human immunodeficiency virus type 1 integrase (Human immunodeficiency virus 1, UniProt Q7ZJM1); assay: Inhibition of HIV-1 integrase strand transfer activity preincubated for 30 mins followed by 5'-end 32P-labeled linear double-stranded oligonucleotide addition
# T1 sequence (Q7ZJM1 whole entry): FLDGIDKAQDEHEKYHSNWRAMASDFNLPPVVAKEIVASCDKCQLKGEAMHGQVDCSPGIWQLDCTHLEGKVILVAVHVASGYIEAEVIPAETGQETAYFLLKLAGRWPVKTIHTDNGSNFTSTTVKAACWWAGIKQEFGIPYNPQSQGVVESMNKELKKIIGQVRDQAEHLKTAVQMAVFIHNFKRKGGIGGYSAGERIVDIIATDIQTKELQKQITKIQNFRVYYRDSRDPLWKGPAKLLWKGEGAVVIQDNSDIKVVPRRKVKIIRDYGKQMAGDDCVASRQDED
# [30] = biological target: T1, Human immunodeficiency virus type 1 integrase; assay: Inhibition of HIV-1 integrase 3'-end processing activity preincubated for 30 mins followed by 5'-end 32P-labeled linear double-stranded oligonucleotide addition
# [31] = Inhibition of HIV-1 recombinant His6-tagged integrase/human LEDGF-75 interaction expressed in Escherichia coli BL21(DE3) by SDS PAGE analysis
# [32] = tested on: Human immunodeficiency virus 1; assay: Antiviral activity against HIV-1 NL4-3 infected in human HuT78 cells assessed as inhibition of viral p24 production incubated for 4 days followed by compound washout measured after 48 hrs; type: functional, organism-based; details: Human immunodeficiency virus 1, NL4-3, HuT78
# [33] = Inhibition of HIV-1 His6-tagged integrase/Flag-tagged LEDGF-75 (unknown origin) interaction by AlphaScreen assay
# [34] = Selectivity index, ratio of CC50 for human MT4 cells to EC50 for HIV-1 infected in human MT4 cells; type: toxicity, cell-based; details: read-out: Ratio CC50/EC50
# [35] = tested on: Human immunodeficiency virus 1; assay: Antiviral activity against HIV-1 infected in human MT4 cells assessed as reduction of virus-induced cytopathic effect by MTT assay; type: functional, organism-based; details: Human immunodeficiency virus 1, MT4
smiles,measurement,setting,value
COc1cc2c(cc1Cc1cccc(Cl)c1F)c(=O)c(C(=O)O)cn2[C@H](CO)C(C)C,fold change (FC),[1],2
same,fold change (FC),[2],>100
same,fold change (FC),[3],>100
same,fold change (FC),[4],20
same,fold change (FC),[5],>10
same,fold change (FC),[6],50
same,fold change (FC),[7],50
same,fold change (FC),[8],<2
same,EC90,[9],0.0017 µM
same,fold change (FC),[10],2
same,fold change (FC),[11],2
same,fold change (FC),[12],<2
same,fold change (FC),[13],>100
same,fold change (FC),[14],<2
same,fold change (FC),[15],2
same,fold change (FC),[16],10
same,fold change (FC),[17],<2
same,fold change (FC),[18],>100
same,fold change (FC),[19],20
same,fold change (FC),[20],>100
same,fold change (FC),[21],50
same,Tmax,[22],30 min
same,Tmax,[23],30 min
same,fold change (FC),[24],<2
same,fold change (FC),[25],2
same,bioavailability,[26],30%
CCOc1cc(/C=C2\SC(=O)N(CC(=O)c3ccccc3)C2=O)c(Br)cc1OCc1ccc(C(=O)O)cc1,EC50,[27],23.8 µg/mL
C[C@@](Cc1ccc(O)c(O)c1)(NN)C(=O)O [CARBIDOPA],IC50,[28],6.54 µM
O=C(c1ccccc1)c1ccc(C(c2c(O)c3ccccc3oc2=O)c2c(O)c3ccccc3oc2=O)cc1,IC50,[29],18 µM
same,IC50,[30],27 µM
CCCC(C(=O)O)c1c(C)nc2ccc(Cl)cc2c1-c1ccccc1 (stereo unspecified),IC50,[31],1.37 µM
same,EC50,[27],2.35 µM
C=CCN(Cc1ccccc1C(=O)NC(c1ccc(OC)cc1)c1ccc(OC)cc1)Cc1ccc2c(c1C(=O)O)OCO2,EC50,[32],29 µM
same,IC50,[33],8.1 µM
Cc1ccc(-c2c(C(OC(C)(C)C)C(=O)O)cnc3sc(C)cc23)cc1 (stereo unspecified),selectivity ratio,[34],1390
same,EC50,[35],0.069 µM
